Measured values: ChEMBL document CHEMBL4387767, “Synthesis of carbazoloquinone derivatives and their antileukemic activity via modulating cellular reactive oxygen species” (Bioorg Med Chem Lett, 2019)
Activity calls are given as the source filed them. The calls are words filed in the database; no cut-off is given here.

Tests used:
[1] = tested on: HL-60; test: Induction of apoptosis in human HL60 cells assessed as chromatin condensation at 1 uM measured after 24 hrs by Hoechst 33342 staining based fluorescence microscopic method; format: functional, cell-based
[2] = tested on: HL-60; test: Cytotoxicity against human HL60 cells assessed as reduction in cell viability measured after 48 hrs by CCK8 assay; format: functional, cell-based; conditions: HL-60, 48 h
[3] = tested on: HL-60; test: Induction of apoptosis in human HL60 cells assessed as chromatin fragmentation at 1 uM measured after 24 hrs by Hoechst 33342 staining based fluorescence microscopic method; format: functional, cell-based
[4] = tested on: HL-60; test: Induction of reactive oxygen species generation in human HL60 cells assessed as increase in extracellular ROS level at 1 uM measured after 2 hrs by NBT dye-based assay; format: functional, cell-based
[5] = tested on: HL-60; test: Induction of apoptosis in human HL60 cells assessed as chromatin crenation at 1 uM measured after 24 hrs by Hoechst 33342 staining based fluorescence microscopic method; format: functional, cell-based
[6] = tested on: HL-60; test: Induction of reactive oxygen species generation in human HL60 cells assessed as increase in intracellular ROS level at 1 uM measured after 2 hrs by NBT dye-based assay relative to control; format: functional
[7] = tested on: HL-60; test: Cytotoxicity against human HL60 cells assessed as cell viability at 10 uM measured after 48 hrs by CCK8 assay relative to control; format: functional; conditions: HL-60, 48 h, read-out: Activity

Q: For `O=C1c2ccccc2C(=O)c2c1oc1ccccc21`, which Activity [1] is on record?
A: Active

Q: What about the IC50 ([2]; read-out: IC50) of the same molecule?
A: 410 nM

Q: And the Activity [3]?
A: Active

Q: What about the Activity [4] of the same molecule?
A: Active

Q: And the Activity [5]?
A: Active

Q: What about the “fold change (FC)” value [6] of the same molecule?
A: 2.3 - 2.4

Q: Which results are given for `COc1cc2[nH]c3c(c2cc1OC)C(=O)C(C)=CC3=O`?
A: viability at 10 µM [7]: < 20%; IC50 ([2]; read-out: IC50): 550 nM

Q: Which viability at 10 µM [7] does the source give for `COc1ccc2[nH]c3c(c2c1)C(=O)C=C(C)C3=O` here?
A: < 20%

Q: And the IC50 ([2]; read-out: IC50)?
A: 5060 nM

Q: For `CC1=CC(=O)c2[nH]c3ccc(C(F)(F)F)cc3c2C1=O`, which viability at 10 µM [7] is on record?
A: < 20%

Q: What about the IC50 ([2]; read-out: IC50) of the same molecule?
A: 590 nM

Q: Which IC50 ([2]; read-out: IC50) does the source give for `O=C1c2ccccc2C(=O)c2c1sc1ccccc21` here?
A: > 50000 nM

Q: How did the viability at 10 µM [7] turn out when `CC1=CC(=O)c2c([nH]c3ccccc23)C1=O` was run?
A: < 20%

Q: What about the IC50 ([2]; read-out: IC50) of the same molecule?
A: 290 nM

Q: How did the viability at 10 µM [7] turn out when `COc1ccc2c3c([nH]c2c1)C(=O)C=C(C)C3=O` was run?
A: < 20%

Q: What about the IC50 ([2]; read-out: IC50) of the same molecule?
A: 1210 nM

Q: For `CC1=CC(=O)c2[nH]c3ccccc3c2C1=O` [MURRAYAQUINONE A], which Activity [1] is on record?
A: Active

Q: What about the viability at 10 µM [7] of the same molecule?
A: < 20%

Q: What about the IC50 ([2]; read-out: IC50) of the same molecule?
A: 730 nM

Q: What about the Activity [3] of the same molecule?
A: Active

Q: And the Activity [4]?
A: Active

Q: What about the Activity [5] of the same molecule?
A: Active

Q: What about the “fold change (FC)” value [6] of the same molecule?
A: 2.3 - 2.4

Q: How did the IC50 ([2]; read-out: IC50) turn out when `O=C1c2ccccc2C(=O)c2c1[nH]c1ccccc21` [BENZOCARBAZOLEDIONE] was run?
A: > 50000 nM

Q: And the Activity [6]?
A: Active

Q: How did the IC50 ([2]; read-out: IC50) turn out when `O=C1c2ccccc2C(=O)c2c1[se]c1ccccc21` was run?
A: > 50000 nM

Q: Which IC50 [2] does the source give for `O=c1[nH]cc(F)c(=O)[nH]1` [FLUOROURACIL] here?
A: 42800 nM

Q: How did the viability at 10 µM [7] turn out when `COc1ccc2[nH]c3c(c2c1)C(=O)C(C)=CC3=O` was run?
A: < 20%

Q: What about the IC50 ([2]; read-out: IC50) of the same molecule?
A: 3110 nM

Q: What does the source list for `CC1=CC(=O)c2[nH]c3ccc(Cl)cc3c2C1=O`?
A: viability at 10 µM [7]: < 20%; IC50 ([2]; read-out: IC50): 240 nM
